Laboratory results taken from patent publication US7972793B2, “Methods and compositions for the treatment of psychotic disorders through the identification of the SULT4A1-1 haplotype” (Suregene, LLC, priority 2009, dated 2011).
Like-named read-outs stand apart in the source and are kept apart here. Marks after values point to notes of the source that are not given here.

Columns and labels:
[1] = system: CATIE Caucasian schizophrenia patients; experiment: CATIE Phase 1 drug response: change in total PANSS (LOCF), drug switchers, segmented by SULT4A1-1 status; assay type: in vivo, human; settings: for ≦−20% (number of individuals with this percent change in total PANSS; responders) / ≧−20% (number of individuals with this percent change in total PANSS; non-responders): LOCF; for Non Responder (number) / Responder (number): Table 16, 20% decrease in PANSS threshold
Description: There are several different metrics for quantifying response in clinical trials of antipsychotic medications. The most commonly used psychometric instrument is the Positive and Negative Syndrome Scale (PANSS), a 30-item semi-quantitative instrument scored by clinical professionals (Kay et al., 1987). The greater the decrease in PANSS score, the better the clinical response. The most direct measure of clinical response is absolute change in PANSS score. In addition to absolute change, the improvement is often reported as a percentage change from baseline PANSS score.
A decrease of at least 20% in total PANSS is one commonly used threshold for response (Leucht et al., 2009).
The design of the CATIE study has been described in detail by others (Lieberman et al., 2005; Stroup et al., 2003). […] A total of 738 subjects consented to provide DNA for genetic study. […] Retrospective genetic analyses, judged to be exempt from human studies requirements by an IRB, were conducted in the current study.
All tested patients were studied using well established clinical endpoints comparing baseline, intermediate, and last observation carried forward (LOCF) for the PANSS scores using CATIE data. LOCF analysis is a commonly used clinical endpoint for clinical trials for neuropsychiatric drugs, with changes in PANSS scores of between negative 20% and negative 30% used as typical endpoints to indicate clinically significant response (Leucht et al., 2009). To remove time on drug as a variable for the CATIE trial, analysis was limited to only those patients who were randomized to a different drug following the initial washout period (drug switchers).
As mentioned previously, the mean change in absolute or percent PANSS provides an important measure of efficacy in patients undergoing antipsychotic treatments. Indeed, many pivotal trials in the psychosis field used absolute and/or percentage change in PANSS Score as the primary endpoint (Leucht et al., 2009). […] Therefore, in addition to examining a categorical definition of clinically significant response, the inventors determined the impact of segmentation by SULT4A1-1 status on the quantitative measure of clinical improvement—delta PANSS.

[2] = system: CATIE Caucasian schizophrenia patients; experiment: Time to discontinuation for all causes in the CATIE study; assay type: in vivo, human; settings: SULT4A1-1 Negative
Description: The primary endpoint for the CATIE study was time to discontinuation for all causes (Lieberman et al., 2005). Thus the inventors evaluated the effect of SULT41-1 status on this important parameter.

[3] = system: CATIE African American schizophrenia patients; experiment: CATIE drug response: change in total PANSS (LOCF), segmented by SULT4A1-1 status, African Americans; assay type: in vivo, human
Description: The design of the CATIE study has been described in detail by others (Lieberman et al., 2005; Stroup et al., 2003). […] A total of 738 subjects consented to provide DNA for genetic study. […] Retrospective genetic analyses, judged to be exempt from human studies requirements by an IRB, were conducted in the current study. All tested patients were studied using well established clinical endpoints comparing baseline, intermediate, and last observation carried forward (LOCF) for the PANSS scores using CATIE data. […] To remove time on drug as a variable for the CATIE trial, analysis was limited to only those patients who were randomized to a different drug following the initial washout period (drug switchers).

CATIE Caucasian subjects = experiment: Rate of hospitalization due to exacerbation of psychosis in CATIE by SULT4A1-1 status; assay type: in vivo, human
Description: For this analysis, the inventors assigned a dichotomous value (positive or negative) for hospitalization status to subjects in each phase of the trial based on only the first hospitalization event for a given patient in that phase.

[4] = system: CATIE schizophrenia patients; experiment: Length of successful treatment by the CGI scale (TMSUCC1) in CATIE; assay type: in vivo, human
Description: The CATIE clinical data set included the Clinical Global Impression (CGI) Scale, an observer-provided assessment of the psychiatric health of the patient (Stroup et al., 2003; Guy 1976). Patients are rated with the CGI Scale from 1 to 7, with higher scores indicating greater severity of illness. The CATIE study provided a response variable that measured the time (in months) of successful treatment as measured by the CGI scale (“TMSUCC1” in the CATIE data).
The CATIE clinical data set included Clinical Global Impression (CGI) Scale, an observer-provided assessment of the psychiatric health of the patient (Stroup et al., 2003; Guy 1976). Patients are rated with the CGI Scale from 1 to 7, with higher scores indicating greater severity of illness. The CATIE study provided a response variable that measured the time (in months) of successful treatment as measured by the CGI scale (“TMSUCC1” in the CATIE data).

[5] = system: CATIE Phase I non-responders; settings: CATIE Phase II, LOCF; for Responders (number): decrease PANSS ≧ 20%
[6] = SULT4A1-1 Negative, CATIE Caucasians
[7] = SULT4A1-1 Positive, CATIE Caucasians
[8] = SULT4A1-1 negative group (sign not given)
[9] = SULT4A1-1 positive group (sign not given)
[10] = olanzapine SULT4A1-1 + vs olanzapine SULT4A1-1 −, CATIE
[11] = olanzapine SULT4A1-1 + vs perphenazine SULT4A1-1 +, CATIE
[12] = olanzapine SULT4A1-1 + vs quetiapine SULT4A1-1 +, CATIE
[13] = olanzapine SULT4A1-1 + vs risperidone SULT4A1-1 +, CATIE
[14] = olanzapine SULT4A1-1 + vs unsegmented (all drugs), CATIE
[15] = olanzapine SULT4A1-1 + vs unsegmented SULT4A1-1 +, CATIE
[16] = olanzapine SULT4A1-1 + vs unsegmented olanzapine, CATIE
[17] = olanzapine SULT4A1-1 + vs ziprasidone SULT4A1-1 +, CATIE
[18] = SULT4A1-1 Positive, CATIE Phases 1, 2 and/or 3
[19] = Unsegmented, CATIE Phases 1, 2 and/or 3

Cc1cc2c(s1)Nc1ccccc1N=C2N1CCN(C)CC1 [Olanzapine]
DELTA PANSS % (mean change in PANSS score from baseline to LOCF) [1, 6]: −3*** % | ≦−20% (number of individuals with this percent change in total PANSS; responders) [1, 6]: 10 | ≧−20% (number of individuals with this percent change in total PANSS; non-responders) [1, 6]: 33 | DELTA PANSS % (mean change in PANSS score from baseline to LOCF) ([1]; SULT4A1-1 Negative, CATIE Caucasians, listed as olanzapine): −3% | DELTA PANSS % (mean change in PANSS score from baseline to LOCF) [1, 7]: −24% | ≦−20% (number of individuals with this percent change in total PANSS; responders) [1, 7]: 10 | ≧−20% (number of individuals with this percent change in total PANSS; non-responders) [1, 7]: 5 | Non Responder (number) [1, 8]: 33 | Responder (number) [1, 8]: 10 | Non Responder (number) [1, 9]: 5 | Responder (number) [1, 9]: 10 | Effect size ([1]; olanzapine SULT4A1-1 + vs SULT4A1-1 + except olanzapine, CATIE): 0.68 | Effect size [1, 10]: 0.93 | Mean difference (95% CI) in delta PANSS [1, 10]: −20.9 (−33.4 to −8.4) | Effect size [1, 11]: 0.68 | Mean difference (95% CI) in delta PANSS [1, 11]: −14.2 (−29.8 to 1.4) | Effect size [1, 12]: 0.75 | Mean difference (95% CI) in delta PANSS [1, 12]: −14.9 (−28.3 to −1.5) | Effect size [1, 13]: 0.93 | Mean difference (95% CI) in delta PANSS [1, 13]: −20.9 (−33.2 to −6.0) | Effect size [1, 14]: 0.83 | Mean difference (95% CI) in delta PANSS [1, 14]: −19.6 (−31.7 to −7.5) | Effect size [1, 15]: 0.60 | Mean difference (95% CI) in delta PANSS [1, 15]: −13.0 (−24.7 to −1.2) | Effect size [1, 16]: 0.69 | Mean difference (95% CI) in delta PANSS [1, 16]: −15.5 (−27.8 to −3.2) | Effect size [1, 17]: 0.77 | Mean difference (95% CI) in delta PANSS [1, 17]: −16.1 (−32.7 to 0.5) | Effect size ([1]; olanzapine-treated SULT4A1-1 positive patients compared to various other SULT4A1-1-drug combinations, CATIE): −0.91 to −0.47 | delta PANSS ([1]; overall (not segmented by SULT4A1-1 status), CATIE): −9 | Responders (number, out of 58) ([1]; patients unselected for SULT4A1-1 status, 20% PANSS threshold, CATIE Caucasians): 20 | Time to discontinuation, mean time in months [2]: 10.0** Months | ≦−20% (number of individuals; responders) ([3]; SULT4A1-1 Negative): 15 | ≧−20% (number of individuals; non-responders) ([3]; SULT4A1-1 Negative): 30 | ≦−20% (number of individuals; responders) ([3]; SULT4A1-1 Positive): 1 | ≧−20% (number of individuals; non-responders) ([3]; SULT4A1-1 Positive): 3 | Responders ([3]; SULT4A1-1 Positive, change in total PANSS ≦−20%): 25% | HOSP (number of subjects hospitalized) (CATIE Caucasian subjects; [18]): 1 | HOSP (rate of hospitalization) (CATIE Caucasian subjects; [18]): (2.6%) | HOSP (rate of hospitalization) (CATIE Caucasian subjects; SULT4A1-1 Positive, CATIE Phases 1, 2 and/or 3, listed as olanzapine): 2.6% | HOSP (number of subjects hospitalized) (CATIE Caucasian subjects; SULT4A1-1 negative, CATIE Phases 1, 2 and/or 3): 22 | HOSP (number of subjects hospitalized) (CATIE Caucasian subjects; [19]): 23 | HOSP (rate of hospitalization) (CATIE Caucasian subjects; [19]): (14.2%) | Length of Successful Treatment (CGI Months), Mean ([4]; SULT4A1-1 Positive): 8.33^d Months | Length of Successful Treatment (CGI Months), Mean ([4]; Unsegmented): 6.10 Months | Nonresponders (number) ([5]; SULT4A1-1 Negative): 14 | Responders (number) ([5]; SULT4A1-1 Negative): 3 | Nonresponders (number) ([5]; SULT4A1-1 Positive): 4 | Responders (number) ([5]; SULT4A1-1 Positive): 3
